Experimental data: patent publication US8829027B2, “Urea derivatives of substituted nortropanes, medicaments containing such compounds and their use” (Boehringer Ingelheim International GmbH, priority 2008, dated 2014)

Target: T1, 11β-HSD1 (Homo sapiens, UniProt P28845)
T1 construct: detecting cortisol generated from cortisterone by human liver microsomes; from tissue; host or cells: human liver microsomes
Experiment: In vitro inhibition of 11β-HSD1, HTRF detection of cortisol generated from cortisone by human liver microsomes
Type: biochemical
Conditions: compound concentration 1 μM, 100% indicates no inhibition, zero or below zero indicates complete inhibition
Method: Briefly, compounds are incubated for 1 hour at 37° C. in Tris buffer (20 mM tris, 5 mM EDTA, pH 6.0) containing NADPH (200 μM) and cortisone (80 nM). Cortisol generated in the reaction is then detected with a competitive immunoassay, involving two HTRF conjugates: cortisol linked to XL665 and anti-cortisol antibody labeled with Europium cryptate. The incubation period for detection reaction is typically 2 hours. The amount of cortisol is determined by reading the time-resolved fluorescence of the wells (Ex 320/75 nm; Em 615/8.5 nm and 665/7.5 nm). The ratio of the two emission signals is then calculated (Em665*10000/Em615). […] Each assay also contains a calibration curve with cortisol to transform the fluorescent data into cortisol concentrations. Percent inhibition (% CTL) of each compound is determined relative to the carbenoxolone signal and IC50 curves are generated.
The % CTL values of some example compounds at a concentration of 1 μM are provided in the following Table 2 wherein 100% indicates no inhibition and a value of zero or below zero indicates complete inhibition. The measurement of % CTL is described hereinbefore.

T1 sequence (P28845 whole entry): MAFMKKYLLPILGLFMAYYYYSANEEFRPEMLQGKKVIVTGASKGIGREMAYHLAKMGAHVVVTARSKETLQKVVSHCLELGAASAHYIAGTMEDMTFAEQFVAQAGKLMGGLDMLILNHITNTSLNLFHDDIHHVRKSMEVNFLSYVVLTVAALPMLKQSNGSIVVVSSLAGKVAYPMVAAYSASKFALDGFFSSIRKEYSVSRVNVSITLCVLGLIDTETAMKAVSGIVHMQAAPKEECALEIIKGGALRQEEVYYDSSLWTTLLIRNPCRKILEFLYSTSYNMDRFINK

Row | Structure (SMILES) | 11β-HSD1 remaining activity (% of control) [% CTL]
1 | O=C(N1CCCCC1)N1[C@@H]2CC[C@H]1C[C@@H](c1ccc(F)cc1)C2 [Example 1, endo-[3-(4-Fluoro-phenyl)-8-aza-bicyclo[3.2.1]oct-8-yl]-piperidin-1-yl-methanone] | −49
2 | O=C(N1CCCC1)N1[C@@H]2CC[C@H]1C[C@@H](c1ccc(F)cc1)C2 [Example 2, endo-[3-(4-Fluoro-phenyl)-8-aza-bicyclo[3.2.1]oct-8-yl]-pyrrolidin-1-yl-methanone] | −3
3 | O=C(N1CCOCC1)N1[C@@H]2CC[C@H]1C[C@@H](c1ccc(F)cc1)C2 [Example 3, endo-[3-(4-Fluoro-phenyl)-8-aza-bicyclo[3.2.1]oct-8-yl]-morpholin-4-yl-methanone] | −29
4 | CC(=O)NC1CCN(C(=O)N2[C@@H]3CC[C@H]2C[C@@H](c2ccc(F)cc2)C3)CC1 [Example 4, endo-N-{1-[3-(4-Fluoro-phenyl)-8-aza-bicyclo[3.2.1]octane-8-carbonyl]-piperidin-4-yl}-acetamide] | 46
5 | O=C(N1CCC(O)CC1)N1[C@@H]2CC[C@H]1C[C@@H](c1ccc(F)cc1)C2 [Example 5, endo-[3-(4-Fluoro-phenyl)-8-aza-bicyclo[3.2.1]oct-8-yl]-(4-hydroxy-piperidin-1-yl)-methanone] | −46
6 | O=C(N1CCc2nc[nH]c2C1)N1[C@@H]2CC[C@H]1C[C@@H](c1ccc(F)cc1)C2 [Example 6, endo-[3-(4-Fluoro-phenyl)-8-aza-bicyclo[3.2.1]oct-8-yl]-(3,4,6,7-tetrahydro-imidazo[4,5-c]pyridin-5-yl)-methanone] | 65
7 | O=C(N1CCc2sccc2C1)N1[C@@H]2CC[C@H]1C[C@@H](c1ccc(F)cc1)C2 [Example 7, endo-(6,7-Dihydro-4H-thieno[3,2-c]pyridin-5-yl)-[3-(4-fluoro-phenyl)-8-aza-bicyclo[3.2.1]oct-8-yl]-methanone] | −57
8 | O=C(N1[C@@H]2CC[C@H]1C[C@@H](O)C2)N1[C@@H]2CC[C@H]1C[C@@H](c1ccc(F)cc1)C2 [Example 8, [endo-3-(4-Fluoro-phenyl)-8-aza-bicyclo[3.2.1]oct-8-yl]-(endo-3-hydroxy-8-aza-bicyclo[3.2.1]oct-8-yl)-methanone] | −59
9 | NC(=O)C1CCN(C(=O)N2[C@@H]3CC[C@H]2C[C@@H](c2ccc(F)cc2)C3)CC1 [Example 9, endo-1-[3-(4-Fluoro-phenyl)-8-aza-bicyclo[3.2.1]octane-8-carbonyl]-piperidine-4-carboxylic acid amide] | −49
10 | O=C(O)C1CCN(C(=O)N2[C@@H]3CC[C@H]2C[C@@H](c2ccc(F)cc2)C3)CC1 [Example 11, endo-1-[3-(4-Fluoro-phenyl)-8-aza-bicyclo[3.2.1]octane-8-carbonyl]-piperidine-4-carboxylic acid] | 4
11 | N#CC1CCN(C(=O)N2[C@@H]3CC[C@H]2C[C@@H](c2ccc(F)cc2)C3)CC1 [Example 12, endo-1-[3-(4-Fluoro-phenyl)-8-aza-bicyclo[3.2.1]octane-8-carbonyl]-piperidine-4-carbonitrile] | −27
12 | COC1CCN(C(=O)N2[C@@H]3CC[C@H]2C[C@@H](c2ccc(F)cc2)C3)CC1 [Example 13, endo-[3-(4-Fluoro-phenyl)-8-aza-bicyclo[3.2.1]oct-8-yl]-(4-methoxy-piperidin-1-yl)-methanone] | −25
13 | O=C(N1CCC(O)(C(F)(F)F)CC1)N1[C@@H]2CC[C@H]1C[C@@H](c1ccc(F)cc1)C2 [Example 14, endo-[3-(4-Fluoro-phenyl)-8-aza-bicyclo[3.2.1]oct-8-yl]-(4-hydroxy-4-trifluoromethyl-piperidin-1-yl)-methanone] | −30
14 | COC(=O)C1CCN(C(=O)N2[C@@H]3CC[C@H]2C[C@@H](c2ccc(F)cc2)C3)CC1 [Example 15, endo-1-[3-(4-Fluoro-phenyl)-8-aza-bicyclo[3.2.1]octane-8-carbonyl]-piperidine-4-carboxylic acid methyl ester] | 20
15 | CC1(O)CCN(C(=O)N2[C@@H]3CC[C@H]2C[C@@H](c2ccc(F)cc2)C3)CC1 [Example 16, endo-[3-(4-Fluoro-phenyl)-8-aza-bicyclo[3.2.1]oct-8-yl]-(4-hydroxy-4-methyl-piperidin-1-yl)-methanone] | −23
16 | O=C(N1C2CCC1CC(O)(C(F)(F)F)C2)N1[C@@H]2CC[C@H]1C[C@@H](c1ccc(F)cc1)C2 (stereo partly drawn) [Example 17, endo-[3-(4-Fluoro-phenyl)-8-aza-bicyclo[3.2.1]oct-8-yl]-(3-hydroxy-3-trifluoromethyl-8-aza-bicyclo[3.2.1]oct-8-yl)-methanone] | −11
17 | O=C(N1CCCC2(CCCNC2=O)C1)N1[C@@H]2CC[C@H]1C[C@@H](c1ccc(F)cc1)C2 (stereo partly drawn) [Example 18, endo-8-[3-(4-Fluoro-phenyl)-8-aza-bicyclo[3.2.1]octane-8-carbonyl]-2,8-diaza-spiro[5.5]undecan-1-one] | 62
18 | O=C(N1CCCC2(CCNC2=O)C1)N1[C@@H]2CC[C@H]1C[C@@H](c1ccc(F)cc1)C2 (stereo partly drawn) [Example 19, endo-7-[3-(4-Fluoro-phenyl)-8-aza-bicyclo[3.2.1]octane-8-carbonyl]-2,7-diaza-spiro[4.5]decan-1-one] | 34
19 | O=C(N1CCCC(CO)C1)N1[C@@H]2CC[C@H]1C[C@@H](c1ccc(F)cc1)C2 (stereo partly drawn) [Example 20, endo-[3-(4-Fluoro-phenyl)-8-aza-bicyclo[3.2.1]oct-8-yl]-(3-hydroxymethyl-piperidin-1-yl)-methanone] | −17
20 | O=C(N1CCC(CO)CC1)N1[C@@H]2CC[C@H]1C[C@@H](c1ccc(F)cc1)C2 [Example 21, endo-[3-(4-Fluoro-phenyl)-8-aza-bicyclo[3.2.1]oct-8-yl]-(4-hydroxymethyl-piperidin-1-yl)-methanone] | −20
21 | CC(C)(O)C1CCN(C(=O)N2[C@@H]3CC[C@H]2C[C@@H](c2ccc(F)cc2)C3)CC1 [Example 22, endo-[3-(4-Fluoro-phenyl)-8-aza-bicyclo[3.2.1]oct-8-yl]-[4-(1-hydroxy-1-methyl-ethyl)-piperidin-1-yl]-methanone] | −18
